From patent US8865734B2 (priority 2010, dated 2014)
In brackets after ≈: the same amount, converted by molar mass.

Tested on: multi-drug resistant (MDR) clinical isolates
Assay: microbe, parasite or virus in culture
Format: cell-based, M. tuberculosis
Settings: for MIC80 / MIC: Mycobacterium tuberculosis; for level of activity relative to MFX: MDR isolates and H37Rv

`NNC(=O)c1ccncc1` [INH, Isoniazid, reference compound] showed an MIC80 (MDR isolate #13) of 5 µM (≈ 0.686 µg/mL), an MIC80 (MDR isolate #33) of 10 µM (≈ 1.37 µg/mL) and an MIC80 (MDR isolate #48) of 10 µM (≈ 1.37 µg/mL). For the same molecule, the MIC80 (MDR isolate #61) was 20 µM (≈ 2.74 µg/mL), the MIC80 (MDR isolate #80) was 5 µM (≈ 0.686 µg/mL) and the MIC80 (MDR isolate #125) was 10 µM (≈ 1.37 µg/mL). The MIC80 (MDR isolate #137) was 20 µM (≈ 2.74 µg/mL), the MIC80 (MDR isolate #143) was 10 µM (≈ 1.37 µg/mL) and the MIC80 (MDR isolate #146) was 20 µM (≈ 2.74 µg/mL). For the same molecule, the MIC80 (MDR isolate #171) was 5 µM (≈ 0.686 µg/mL) and the “resistance of the MDR strains” value (all MDR tested strains) was “resistance was confirmed”.

`CCc1nc2ccccn2c1C(=O)NCc1ccc(-c2ccccc2)cc1` [Compound 47, N-(Biphenyl-4-ylmethyl)-2-ethylimidazo[1,2-a]pyridine-3-carboxamide] was tested, and the “level of activity relative to MFX” value was “comparable to or better than MFX”, the MIC was ≤ 1.25 µM and the MIC80 (MDR isolate #13) was 0.312 µM (≈ 0.111 µg/mL). It also gave an MIC80 (MDR isolate #33) of 0.312 µM (≈ 0.111 µg/mL), an MIC80 (MDR isolate #48) of 0.312 µM (≈ 0.111 µg/mL) and an MIC80 (MDR isolate #61) of 0.312 µM (≈ 0.111 µg/mL). The MIC80 (MDR isolate #80) was 0.312 µM (≈ 0.111 µg/mL), the MIC80 (MDR isolate #125) was 0.625 µM (≈ 0.222 µg/mL) and the MIC80 (MDR isolate #137) was 1.25 µM (≈ 0.444 µg/mL). For the same molecule, the MIC80 (MDR isolate #143) was 1.25 µM (≈ 0.444 µg/mL), the MIC80 (MDR isolate #146) was 0.156 µM (≈ 0.0555 µg/mL) and the MIC80 (MDR isolate #171) was 1.25 µM (≈ 0.444 µg/mL).

For `CCc1nc2ccccn2c1C(=O)NCc1ccc(Oc2ccccc2)cc1` [Compound 54, 2-Ethyl-N-(4-phenoxybenzyl)imidazo[1,2-a]pyridine-3-carboxamide], the “level of activity relative to MFX” value was “comparable to or better than MFX”, the MIC was ≤ 0.625 µM and the MIC80 (MDR isolate #13) was 0.156 µM (≈ 0.058 µg/mL). It also gave an MIC80 (MDR isolate #33) of 0.156 µM (≈ 0.058 µg/mL), an MIC80 (MDR isolate #48) of 0.156 µM (≈ 0.058 µg/mL) and an MIC80 (MDR isolate #61) of 0.156 µM (≈ 0.058 µg/mL). It also gave an MIC80 (MDR isolate #80) of 0.156 µM (≈ 0.058 µg/mL), an MIC80 (MDR isolate #125) of 0.312 µM (≈ 0.116 µg/mL) and an MIC80 (MDR isolate #137) of 0.625 µM (≈ 0.232 µg/mL). It also gave an MIC80 (MDR isolate #143) of 0.312 µM (≈ 0.116 µg/mL), an MIC80 (MDR isolate #146) of 0.312 µM (≈ 0.116 µg/mL) and an MIC80 (MDR isolate #171) of 0.312 µM (≈ 0.116 µg/mL).
